Tested on: pericytes
Assay: Muscular thin film (MTF) assay of pericyte contraction response to vasoactive agents
Format: cell-based
Details: pericytes on muscular thin films treated with vasoactive agent
Excerpt: FIG. 6 illustrates an assay used to measure stress applied by pericytes treated with the vasoactive agent, endothelin.
FIG. 7 illustrates stress measurement applied by pericytes treated with vasoactive agent endothelin.

Question: Which “contraction response of pericytes (stress applied by pericytes)” value does the source give for CC[C@H](C)[C@H](NC(=O)[C@H](CC(=O)O)NC(=O)[C@H](CC(C)C)NC(=O)[C@H](Cc1c[nH]cn1)NC(=O)[C@@H]1CSSC[C@H](N)C(=O)N[C@@H](CO)C(=O)N[C@H]2CSSC[C@H](NC(=O)[C@H](CCC(=O)O)NC(=O)[C@H](CCCCN)NC(=O)[C@H](CC(=O)O)NC(=O)[C@H](CCSC)NC(=O)[C@H](CC(C)C)NC(=O)[C@H](CO)NC(=O)[C@H](CO)NC2=O)C(=O)N[C@@H](C(C)C)C(=O)N[C@@H](Cc2ccc(O)cc2)C(=O)N[C@@H](Cc2ccccc2)C(=O)N1)C(=O)N[C@H](C(=O)N[C@@H](Cc1c[nH]c2ccccc12)C(=O)O)[C@@H](C)CC [endothelin] here?
Answer: The value was “induces pericyte contraction”.
